Patent US9796711B2, “Substituted pyrazolo[3,4-b]pyridin-6-carboxylic acids and method of use” (AbbVie S.àr.l., priority 2015, dated 2017)
Where two headings read alike, the source gives them in different places.

Target: T1, CFTR ΔF508 (Homo sapiens, UniProt P13569, DEL508-508)
T1 construct: bronchial epithelial cells isolated from CF patients homozygous for the CFTR ΔF508 mutation; McGill University; Asterand; University of North Carolina hAEC-CF; host or cells: primary human bronchial epithelial cells from CF patients homozygous for ΔF508
T1 sequence (P13569 with tags, fused parts or gaps DEL508-508): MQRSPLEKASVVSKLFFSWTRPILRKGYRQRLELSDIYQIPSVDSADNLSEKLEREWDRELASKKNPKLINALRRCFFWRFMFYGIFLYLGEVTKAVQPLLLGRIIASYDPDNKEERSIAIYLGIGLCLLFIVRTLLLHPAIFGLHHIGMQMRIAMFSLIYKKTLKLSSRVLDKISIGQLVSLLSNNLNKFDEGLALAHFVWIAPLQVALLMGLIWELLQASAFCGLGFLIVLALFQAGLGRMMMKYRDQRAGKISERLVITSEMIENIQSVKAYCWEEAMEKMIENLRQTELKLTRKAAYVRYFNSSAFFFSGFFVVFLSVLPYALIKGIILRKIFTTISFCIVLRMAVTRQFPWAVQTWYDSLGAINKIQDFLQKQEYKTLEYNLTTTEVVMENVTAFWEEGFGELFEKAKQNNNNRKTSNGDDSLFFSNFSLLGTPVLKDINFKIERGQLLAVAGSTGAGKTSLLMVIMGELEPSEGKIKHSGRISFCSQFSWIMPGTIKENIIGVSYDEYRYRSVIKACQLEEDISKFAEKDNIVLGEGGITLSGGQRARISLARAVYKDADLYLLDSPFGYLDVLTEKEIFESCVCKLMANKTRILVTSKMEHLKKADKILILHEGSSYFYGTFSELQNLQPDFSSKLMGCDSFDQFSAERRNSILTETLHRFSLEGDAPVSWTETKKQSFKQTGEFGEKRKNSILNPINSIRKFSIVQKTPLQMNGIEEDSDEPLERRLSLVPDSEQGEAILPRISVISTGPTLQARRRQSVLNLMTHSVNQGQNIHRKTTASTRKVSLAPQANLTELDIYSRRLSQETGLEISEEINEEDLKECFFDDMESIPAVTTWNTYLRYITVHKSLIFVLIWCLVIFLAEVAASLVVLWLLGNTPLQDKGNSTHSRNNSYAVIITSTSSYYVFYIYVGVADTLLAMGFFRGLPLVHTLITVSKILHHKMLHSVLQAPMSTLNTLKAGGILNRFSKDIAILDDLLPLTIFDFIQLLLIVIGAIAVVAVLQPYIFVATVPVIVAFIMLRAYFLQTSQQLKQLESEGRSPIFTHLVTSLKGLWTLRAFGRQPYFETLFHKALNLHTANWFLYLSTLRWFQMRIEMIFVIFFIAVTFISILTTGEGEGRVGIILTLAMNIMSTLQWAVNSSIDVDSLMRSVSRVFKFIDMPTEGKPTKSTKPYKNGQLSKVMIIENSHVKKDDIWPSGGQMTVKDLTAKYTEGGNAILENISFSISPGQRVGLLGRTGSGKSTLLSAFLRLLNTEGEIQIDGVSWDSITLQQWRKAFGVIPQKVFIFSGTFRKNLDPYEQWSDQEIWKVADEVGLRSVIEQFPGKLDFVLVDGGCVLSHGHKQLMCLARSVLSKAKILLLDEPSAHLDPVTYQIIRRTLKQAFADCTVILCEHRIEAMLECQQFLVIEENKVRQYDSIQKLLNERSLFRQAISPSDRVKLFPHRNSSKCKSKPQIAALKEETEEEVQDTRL
Assay: Chronic TECC assay on primary bronchial epithelial cells (corrector, co-corrector and potentiator)
Format: cell-based
Method: Primary Bronchial Epithelial Cells Protocol
The TECC (Tranepithelial Clamp Circuit, EP-design) assay measures the functionality of the cystic fibrosis Transmembrane Conductance regulator (CFTR) by measuring the short circuit current (Isc) generated over the basolateral and apical membrane of lung epithelial cells. In TECC the transepithelial potential PD and transepithelial resistance (Rt)) are measured in an open circuit and transformed to Ieq using Ohm's law. 24 Wells can be measured simultaneously allowing a higher throughput compared to Ussing chambers.
For this purpose, bronchial epithelial cells isolated from CF patients homozygous for the CFTR ΔF508 mutation (hAEC-CF, Epithelix, Geneva, Switzerland; McGill University, Montreal, Qc; Asterand, Detroit, Mich.; University of North Carolina, Chapel Hill, N.C.) are plated on type IV collagen-coated Transwell® supports (Costar). Human airway epithelia are generated by provision of an air-liquid interface for 21 days to form well-differentiated polarized cultures that resemble in vivo pseudo-stratified ciliated epithelium (Fulcher, M. L., Gabriel, S., Burns, K. A., Yankaskas, J. R., Randell, S. H., 2005. Well-differentiated human airway epithelial cell cultures. Methods Mol. Med. 107, 183-206). The differentiated cells are treated with test corrector compound(s) (corrector alone or in combination with co-corrector, 4-[(2R,4R)-4-({[1-(2,2-difluoro-1,3-benzodioxol-5-yl)cyclopropyl]carbonyl}amino)-7-methoxy-3,4-dihydro-2H-chromen-2-yl]benzoic acid (G924806/A-1618261) (“acute”) or test corrector compounds, co-corrector and potentiator, N-(3-carbamoyl-5,5,7,7-tetramethyl-4,7-dihydro-5H-thieno[2,3-c]pyran-2-yl)-1H-pyrazole-5-carboxamide GLPG1837, (“chronic”) for 24 hours basolaterally to allow sufficient expression of properly folded CFTR protein on the membrane. All compound plates contained negative controls (DMSO) and positive controls (0.15 μM, 4-[(2R,4R)-4-({[1-(2,2-difluoro-1,3-benzodioxol-5-yl)cyclopropyl]carbonyl}amino)-7-(difluoromethoxy)-3,4-dihydro-2H-chromen-2-yl]benzoic acid).
For electrophysiological recording of the “chronic” experiments, the human airway epithelia are mounted in the TECC heating plate for electrophysiological measurement and kept at 37° C. The epithelia are bathed in a NaCl-Ringer solution (120 mM NaCl, 25 mM NaHCO3, 1.2 mM CaCl2, 1.2 mM MgCl2, 0.8 mM KH2PO4, 0.8 mM K2HPO4, pH 7.4, 5 mM glucose) on both the basolateral and apical sides. Test compounds (corrector, co-corrector, 4-[(2R,4R)-4-({[1-(2,2-difluoro-1,3-benzodioxol-5-yl)cyclopropyl]carbonyl}amino)-7-(difluoromethoxy)-3,4-dihydro-2H-chromen-2-yl]benzoic acid, and potentiator, N-(3-carbamoyl-5,5,7,7-tetramethyl-4,7-dihydro-5H-thieno[2,3-c]pyran-2-yl)-1H-pyrazole-5-carboxamide), are re-added to the recording solution prior to measurement. Apical amiloride is used to inhibit the endogenous ENaC currents while forskolin is applied on both apical and basolateral side to stimulate CFTR. Measurements are done during a 20 minute timeframe with recordings every 2 minutes. The increase in Ieq is used as a measure for the increased CFTR activity, EC50 values can be generated by measuring impact of different concentrations of compound on Ieq on primary cells, for this purpose each transwell is treated with a different compound concentration. Inhibitor-172, an inhibitor specific for CFTR, is used to test the specificity of the tested compounds. Raw data were normalized to percentage activity values using the equation: 100×(Sample−Negative control)/(Positive control−Negative Control).

[1] = chronic TECC, AUC = full area under the curve upon forskolin stimulation, with co-corrector and potentiator, 24 hours
[2] = chronic TECC, Ieq = calculations based on the maximum current, with co-corrector and potentiator, 24 hours
[3] = chronic TECC, Ieq = calculations based on the maximum current, with co-corrector and potentiator, 24 hours, read-out: EC50 (nM) (Ieq)
[4] = chronic TECC, AUC = full area under the curve upon forskolin stimulation, with co-corrector and potentiator, 24 hours, read-out: EC50 (nM) (AUC)

SMILES | % Activity at 1 μM (AUC**) [1] | % Activity at 1 μM (Ieq*) [2] | EC50 [3] | further results
CC(C)OC(=O)N1CC[C@@H]2CN(c3cc(C(=O)O)nc4c3c(C3CCC3)nn4-c3ccccc3)CC[C@@H]21 (racemic) [compound 610, rac-3-cyclobutyl-1-phenyl-4-[(3aR,7aS)-1-{[(propan-2-yl)oxy]carbonyl}octahydro-5H-pyrrolo[3,2-c]pyridin-5-yl]-1H-pyrazolo[3,4-b]pyridine-6-carboxylic acid] | 471% |  |  | 
Cc1cccc(-n2nc(C(C)C)c3c(N4CCC(C#N)CC4)cc(C(=O)O)nc32)c1 [compound 191, 4-(4-cyanopiperidin-1-yl)-1-(3-methylphenyl)-3-(propan-2-yl)-1H-pyrazolo[3,4-b]pyridine-6-carboxylic acid] |  | 220% | 50 nM | 
COC1CCN(c2cc(C(=O)O)nc3c2c(C(C)C)nn3-c2cccc(C)c2)CC1 [compound 192, 4-(4-methoxypiperidin-1-yl)-1-(3-methylphenyl)-3-(propan-2-yl)-1H-pyrazolo[3,4-b]pyridine-6-carboxylic acid] |  | 235% | < 30 nM | 
CC(C)c1nn(-c2ccnc(N3CCOCC3)c2)c2nc(C(=O)O)cc(-c3ccc(N4CCOCC4)cc3)c12 [compound 201, 4-[4-(morpholin-4-yl)phenyl]-1-[2-(morpholin-4-yl)pyridin-4-yl]-3-(propan-2-yl)-1H-pyrazolo[3,4-b]pyridine-6-carboxylic acid] | 254% |  |  | EC50 [4]: < 30 nM
CC(C)c1nn(-c2cccc(N3CCOCC3)c2)c2nc(C(=O)O)cc(-c3cnc(N4CCC(C#N)CC4)nc3)c12 [compound 204, 4-[2-(4-cyanopiperidin-1-yl)pyrimidin-5-yl]-1-[3-(morpholin-4-yl)phenyl]-3-(propan-2-yl)-1H-pyrazolo[3,4-b]pyridine-6-carboxylic acid] |  | 241% | < 30 nM | 
CO[C@H]1CCC[C@@H](n2nc(C(C)C)c3c(-c4ccc(N5CCOCC5)cc4)cc(C(=O)O)nc32)C1 [compound 205, 1-[(1R,3S)-3-methoxycyclohexyl]-4-[4-(morpholin-4-yl)phenyl]-3-(propan-2-yl)-1H-pyrazolo[3,4-b]pyridine-6-carboxylic acid] |  | 140% | > 1000 nM | 
COCC1CCN(c2cc(C(=O)O)nc3c2c(C(C)C)nn3-c2cccc(C)c2)CC1 [compound 227, 4-[4-(methoxymethyl)piperidin-1-yl]-1-(3-methylphenyl)-3-(propan-2-yl)-1H-pyrazolo[3,4-b]pyridine-6-carboxylic acid] |  | 300% | 30 nM | 
COCCC1CCN(c2cc(C(=O)O)nc3c2c(C(C)C)nn3-c2cccc(C)c2)CC1 [compound 228, 4-[4-(2-methoxyethyl)piperidin-1-yl]-1-(3-methylphenyl)-3-(propan-2-yl)-1H-pyrazolo[3,4-b]pyridine-6-carboxylic acid] |  | 280% | < 30 nM | 
CC(C)c1nn(-c2cccc(N3CCOCC3)n2)c2nc(C(=O)O)cc(-c3ccc(N4CCOCC4)cc3)c12 [compound 244, 4-[4-(morpholin-4-yl)phenyl]-1-[6-(morpholin-4-yl)pyridin-2-yl]-3-(propan-2-yl)-1H-pyrazolo[3,4-b]pyridine-6-carboxylic acid] |  | 210% | < 30 nM | 
CC(C)c1nn(-c2cc(F)cc(F)c2)c2nc(C(=O)O)cc(-c3ccc(N4CCOCC4)cc3)c12 [compound 268, 1-(3,5-difluorophenyl)-4-[4-(morpholin-4-yl)phenyl]-3-(propan-2-yl)-1H-pyrazolo[3,4-b]pyridine-6-carboxylic acid] |  | 267% | 25 nM | 
CN(C)C[C@@H](F)C1CCN(c2cc(C(=O)O)nc3c2c(C2CCC2)nn3-c2ccccc2)CC1 [compound 456, 3-cyclobutyl-4-{4-[(1S)-2-(dimethylamino)-1-fluoroethyl]piperidin-1-yl}-1-phenyl-1H-pyrazolo[3,4-b]pyridine-6-carboxylic acid] |  |  |  | EC50 [4]: 120 nM
CCOC(=O)N1CCN(c2cc(C(=O)O)nc3c2c(C2CCC2)nn3-c2ccccc2)CC1 [compound 539, 3-cyclobutyl-4-[4-(ethoxycarbonyl)piperazin-1-yl]-1-phenyl-1H-pyrazolo[3,4-b]pyridine-6-carboxylic acid] | 557% |  |  | 
O=C(O)c1cc(N2CCC(CN3CCCC3)CC2)c2c(C3CCC3)nn(-c3ccccc3)c2n1 [compound 557, 3-cyclobutyl-1-phenyl-4-{4-[(pyrrolidin-1-yl)methyl]piperidin-1-yl}-1H-pyrazolo[3,4-b]pyridine-6-carboxylic acid] | 262% |  |  | % Activity at 3 μM (AUC) (chronic TECC, 3 μM, AUC = full area under the curve upon forskolin stimulation, with co-corrector and potentiator, 24 hours): 384%
O=C(O)c1cc(N2CCC(N3CCOCC3)CC2)c2c(C3CCC3)nn(-c3ccccc3)c2n1 [compound 560, 3-cyclobutyl-4-[4-(morpholin-4-yl)piperidin-1-yl]-1-phenyl-1H-pyrazolo[3,4-b]pyridine-6-carboxylic acid] |  |  |  | EC50: < 30 nM
O=C(O)c1cc(N2CCC(CCN3CCCC3)CC2)c2c(C3CCC3)nn(-c3ccccc3)c2n1 [compound 574, 3-cyclobutyl-1-phenyl-4-{4-[2-(pyrrolidin-1-yl)ethyl]piperidin-1-yl}-1H-pyrazolo[3,4-b]pyridine-6-carboxylic acid] | 190% |  |  | 
O=C(O)c1cc(N2CCC(CCN3CCOCC3)CC2)c2c(C3CCC3)nn(-c3ccccc3)c2n1 [compound 575, 3-cyclobutyl-4-{4-[2-(morpholin-4-yl)ethyl]piperidin-1-yl}-1-phenyl-1H-pyrazolo[3,4-b]pyridine-6-carboxylic acid] | 290% |  |  | EC50: 100 nM
O=C(O)c1cc(N2CCC(N3CCCCC3)CC2)c2c(C3CCC3)nn(-c3ccccc3)c2n1 [compound 576, 4-([1,4′-bipiperidin]-1′-yl)-3-cyclobutyl-1-phenyl-1H-pyrazolo[3,4-b]pyridine-6-carboxylic acid] | 183% |  |  | 
CC(C)c1nn(-c2ccc(F)cc2)c2nc(C(=O)O)cc(N3CCC(C(C)(C)O)CC3)c12 [compound 656, 1-(4-fluorophenyl)-4-[4-(2-hydroxypropan-2-yl)piperidin-1-yl]-3-(propan-2-yl)-1H-pyrazolo[3,4-b]pyridine-6-carboxylic acid] |  |  |  | EC50 [4]: 48 nM
O=C(O)c1cc(N2CCC(N3CCOCC3)CC2)c2c(C3CCC3)nn(-c3ccc(F)cc3)c2n1 [compound 679, 3-cyclobutyl-1-(4-fluorophenyl)-4-[4-(morpholin-4-yl)piperidin-1-yl]-1H-pyrazolo[3,4-b]pyridine-6-carboxylic acid] | 373.3333% |  |  | EC50 [4]: 28 nM
CC(C1CCN(c2cc(C(=O)O)nc3c2c(C2CCC2)nn3-c2ccccc2)CC1)N1CCOCC1 (stereo not shown) [compound 683, 3-cyclobutyl-4-{4-[1-(morpholin-4-yl)ethyl]piperidin-1-yl}-1-phenyl-1H-pyrazolo[3,4-b]pyridine-6-carboxylic acid] | 196.675% |  |  | 
CC1CCN(CCC2CCN(c3cc(C(=O)O)nc4c3c(C3CCC3)nn4-c3ccccc3)CC2)CC1 [compound 687, 3-cyclobutyl-4-{4-[2-(4-methylpiperidin-1-yl)ethyl]piperidin-1-yl}-1-phenyl-1H-pyrazolo[3,4-b]pyridine-6-carboxylic acid] | 263.3333% |  |  | EC50 [4]: 53.5 nM
